Assay results: patent US11330820B2, “Pesticidally active mixtures” (BASF Agrochemical Products B.V., priority 2016, dated 2022)
Where “and” joins values, the source holds several entries; their conditions need not be identical. Identical values can stand only once.

Columns and labels:
Assay type in all cases: in vivo
[1] = system: vetch aphid (Megoura viciae); experiment: Control of vetch aphid on broad bean leaf disks, contact or systemic (B.1)
Description: For evaluating control of vetch aphid (Megoura viciae) through contact or systemic means the test unit consisted of 24-well-microtiter plates containing broad bean leaf disks. The compounds or mixtures were formulated using a solution containing 75% by weight water and 25% by weight DMSO. Different concentrations of formulated compounds or mixtures were sprayed onto the leaf disks at 2.5 μl, using a custom built micro atomizer, at two replications.
(§1) For experimental mixtures in these tests identical volumes of both mixing partners at the desired concentrations respectively, were mixed together.
After application, the leaf disks were air-dried and 5-8 adult aphids placed on the leaf disks inside the microtiter plate wells. The aphids were then allowed to suck on the treated leaf disks and incubated at 23+1° C., 50+5% RH for 5 days. Aphid mortality and fecundity was then visually assessed.

[2] = system: boll weevil (Anthonomus grandis); experiment: Control of boll weevil, insect diet with eggs (B.3)
Description: For evaluating control of boll weevil (Anthonomus grandis) the test unit consisted of 24-well-microtiter plates containing an insect diet and 20-30 A. grandis eggs.
(§2) The compounds or mixtures were formulated using a solution containing 75% by weight water and 25% by weight DMSO. Different concentrations of formulated compounds or mixtures were sprayed onto the insect diet at 20 μl, using a custom built micro atomizer, at two replications. For experimental mixtures in these tests identical volumes of both mixing partners at the desired concentrations respectively, were mixed together.
After application, microtiter plates were incubated at 23±1° C., 50±5% RH for 5 days. Egg and larval mortality was then visually assessed.

[3] = system: green peach aphid (Myzus persicae); experiment: Control of green peach aphid through systemic means, artificial diet under membrane (B.2)
Text: For evaluating control of green peach aphid (Myzus persicae) through systemic means the test unit consisted of 96-well-microtiter plates containing liquid artificial diet under an artificial membrane.
The compounds or mixtures were formulated using a solution containing 75% by weight water and 25% by weight DMSO. Different concentrations of formulated compounds or mixtures were pipetted into the aphid diet, using a custom built pipetter, at two replications.
For experimental mixtures in these tests identical volumes of both mixing partners at the desired concentrations respectively were mixed together.
After application, 5-8 adult aphids were placed on the artificial membrane inside the microtiter plate wells. The aphids were then allowed to suck on the treated aphid diet and incubated at 23±1° C., 50±5% RH for 3 days. Aphid mortality and fecundity was then visually assessed.

[4] = system: Greenhouse Whitefly (Trialeurodes vaporariorum); experiment: Control of greenhouse whitefly, egg plant leaf disk with white fly eggs (B.5)
Description: as §2, with “For evaluating control of Greenhouse Whitefly (Trialeurodes vaporariorum) the test unit consisted of 96-well-microtiter plates containing a leaf disk of egg plant leaf disk with white fly eggs. The” for “The”, “2.5” for “20”
After application, microtiter plates were incubated at 23±1° C., 65±5% RH for 6 days. Mortality of hatched crawlers was then visually assessed.

[5] = system: tobacco budworm (Heliothis virescens); experiment: Control of tobacco budworm, insect diet with eggs (B.4)
Description: For evaluating control of tobacco budworm (Heliothis virescens) the test unit consisted of 96-well-microtiter plates containing an insect diet and 15-25 H. virescens eggs.
The compounds or mixtures were formulated using a solution containing 75% by weight water and 25% by weight DMSO. Different concentrations of formulated compounds or mixtures were sprayed onto the insect diet at 10 μl, using a custom built micro atomizer, at two replications.
as §1
After application, microtiter plates were incubated at 28+1° C., 80+5% RH for 5 days. Egg and larval mortality was then visually assessed.

[6] = 0.8 ppm, aphid mortality and fecundity after 5 days

## Cn1nc(C(F)(F)C(F)(F)F)c(C(F)(F)F)c1C(=O)Nc1ccc(Cl)c(C(=O)NCc2ccccc2)c1 [II.1, N-[4-Chloro-3-[[(phenylmethyl)amino]carbonyl]phenyl]-1-methyl-3-(1,1,2,2,2-pentafluoroethyl)-4-(trifluoromethyl)-1H-pyrazole-5-carboxamide]
[1]; [6]
  Average Control %: 0%

## CCS(=O)(=O)c1cccnc1-c1nc2cc(C(F)(F)F)cnc2n1C [II.3-1, 2-(3-ethylsulfonyl-2-pyridyl)-3-methyl-6-(trifluoromethyl)imidazo[4,5-b]pyridine]
[2]; 50 ppm, egg and larval mortality after 5 days
  Average Control %: 25%
[1]; 10 ppm, after 5 days
  Average Control %: 50%
[3]; 10 ppm, after 3 days
  Average Control %: 37.5%
[4]; 2 + 0 ppm, mortality of hatched crawlers after 6 days
  Average Control %: 25%

## CCN1OC[C@@H](NC(=O)c2ccc(C3=NOC(c4cc(Cl)cc(Cl)c4)(C(F)(F)F)C3)cc2C)C1=O (stereo partly drawn) [II.4-1, 4-[5-(3,5-dichlorophenyl)-5-(trifluoromethyl)-4H-isoxazol-3-yl]-N-[(4R)-2-ethyl-3-oxo-isoxazolidin-4-yl]-2-methyl-benzamide]
[5]; 0.08 ppm, egg and larval mortality after 5 days
  Average Control %: 0%
[3]; 2 ppm, aphid mortality and fecundity after 3 days
  Average Control %: 0%

## CN(C(=O)c1ccccc1)c1cccc(C(=O)Nc2c(Br)cc(C(F)(C(F)(F)F)C(F)(F)F)cc2C(F)(F)F)c1F [compound a), broflanilide]
[5]; 0.8 ppm, after 5 days
  Average Control %: 0%
[2]; 0.08 ppm, after 5 days
  Average Control %: 25%
[1]; 0.08 ppm, after 5 days
  Average Control %: 0%
[1]; [6]
  Average Control %: 50% and 25%
[3]; 0.08 ppm, after 3 days
  Average Control %: 0%
[3]; 0.8 ppm, after 3 days
  Average Control %: 25%
[4]; 0 + 0.4 ppm, after 6 days
  Average Control %: 0%
